System: purified rat motoneurons
Details: BDNF 1 ng/ml
Method: The effect of the combination has been studied on the cellular death of purified rat motoneurons which is induced by sera from patients suffering from amyotrophic lateral sclerosis.
Purified motoneurons prepared from the spinal cord of rat embryos at 14 days of gestation are cultured in the presence of optimum concentrations of recombinant “brain-derived neurotrophic factor” (BDNF), one of the principal neurotrophic factors for the survival of the motoneurons. […] After a further 2 hours, dilutions of dialyzed sera from patients suffering from ALS are added. On the next day, the number of surviving motoneurons is evaluated by direct counting under a phase contrast microscope.
The stock solution of gabapentin is prepared directly by dissolving 17.1 mg of gabapentin in 1 ml of double distilled water.
Rat embryos at 14 days of gestation (Charles River, France) are recovered after sacrificing the mother, under CO2 anesthesia, by pulling the neck. These embryos are placed in phosphate buffer (“phosphate-buffered saline”, PBS) free of calcium and magnesium (Life Technologies).
Unless otherwise stated, the composition of the media used is identical to that indicated in these references. Spinal cords from rat embryos at 14 days of gestation are dissected in sterile PBS and the ventral halves of each cord containing the motoneurons are subdissected. […]

NCC1(CC(=O)O)CCCCC1 [Gabapentin]
Number of motoneurons, Mean (± SEM) (mean of 8 measurements, 4 wells, ALS serum 0.1%, Gabapentin 10^−5 M alone): 5.0
survival of the motoneurons (medium treated with gabapentin alone, ALS serum): 8%
